From US20230048888A1, “USE OF TRIAZOLOTRIAZINE DERIVATIVE IN TREATMENT OF DISEASES” (ZHEJIANG VIMGREEN PHARMACEUTICALS, LTD., priority 2019, published 2023) come the findings set out here.

The target of one assay is T1, adenosine receptors A2A (Homo sapiens, UniProt P29274).
T1 construct: expressed in transfected cells; host or cells: HEK293 (hADORA2A-HEK293)
Briefly: TR-FRET-based cAMP accumulation assay in hADORA2A-HEK293 cells. The format is cell-based. To be noted: NECA at EC80, hADORA2A-HEK293, read-out: A2AR activity (IC50). The method, then: The inhibitory effects of the test compounds on the adenosine receptors A2A were evaluated by TR-FRET-based cAMP accumulation assay. The method included, in HEK293 cells (hADORA2A-HEK293) expressing A2AR, the production of cAMP stimulated by NECA and the inhibitory effect of A2A receptor antagonists on cAMP. All cells were cultured in a complete medium at 37° C. in the presence of 5% CO2. After being digested with trypsin, the cells were collected by centrifugation at 200 g for 5 minutes. The cells were resuspended in a fresh complete medium, and then the cell viability was counted by a trypan blue exclusion method. […] The cells were diluted with Hank's buffer solution containing HEPES (5 mM), BSA stabilizer (0.1%) and Rolipram (10 μM), then added to a 384-well white non-transparent plate (cells/well, 10 μl/well), and incubated with the test compound at an appropriate concentration (11 concentrations) for 20 minutes at room temperature. Then, the A2A receptor agonist NECA (final concentration=EC80, which was determined in the same experiment performed earlier) was added to the sample, and the sample was incubated again at 37° C. for 30 minutes.
An inhibition rate (%) was calculated according to the following formula, and an IC50 value was calculated from a concentration-inhibition (%) curve after log conversion.
A curve corresponding to the dose was fitted by using XLfit software and the IC50 was determined.

Assay [1] concerns haloperidol-induced stiffness. Briefly: Haloperidol-induced Parkinson's disease stiffness model in CD-1 mice (rearing and bar tests). It is filed as in vivo. The source says:
Parkinson's disease (PD) is a common class of degenerative disease of the nervous system with the main pathological changes including the loss of substantia nigra dopaminergic neurons and the decrease of dopamine transmitter content, leading to tremor at rest, muscle stiffness, […], postural reflex disorders and other clinical symptoms. Haloperidol, a dopamine D2 receptor blocker, can block the dopamine D2 receptor in the striatum, leading to mouse dystonic postures, namely, stiffness and hypokinesia. This model is a recognized animal model of Parkinson's syndrome. The ameliorative effect of a test substance on the stiffness symptom of Parkinson's disease induced by haloperidol in CD-1 mice was evaluated. 57 SPF-grade male CD-1 mice (4 weeks old at the time of purchase and 8 weeks old at the time of experiment) with the weight of about 40 g were randomly divided into 5 groups, namely, a vehicle group (n=11), a group of 1 mg/kg benzene sulfonate of Compound 40 (n=11), a group of 3 mg/kg benzene sulfonate of Compound 40 (n=12), a group of 10 mg/kg benzene sulfonate of Compound 40 (n=12), and a group of 30 mg/kg benzene sulfonate of Compound 40 (n=11). 1 mg/kg haloperidol was injected subcutaneously at an injection volume of 10 ml/kg. 30 minutes after the injection, Compound 40 at each dose was intragastrically infused at a volume of 10 ml/kg. At the 1st hour and the 4th hour after the administration was completed, the rearing and bar tests were performed respectively, and the number of standings and on-bar time of the mice were counted to evaluate the ameliorative effect of Compound 40 on the stiffness symptom of haloperidol-induced Parkinson's disease in CD-1 mice. […] Firstly, the acetate of Compound 22 at each dose was intragastrically infused at a volume of 10 ml/kg. After 30 min, 1 mg/kg haloperidol was injected subcutaneously at an injection volume of 10 ml/kg. At the 1st hour and the 4th hour after the administration was completed, the rearing and bar tests were performed respectively, and the number of standings and on-bar time of the mice were counted to evaluate the ameliorative effect of the acetates of Compound 22 on the stiffness symptom of haloperidol-induced Parkinson's disease in CD-1 mice. […] Firstly, Compound 27 at each dose was intragastrically infused at a volume of 10 ml/kg. After 30 min, 1 mg/kg haloperidol was injected subcutaneously at an injection volume of 10 ml/kg. At the 1st hour and the 4th hour after the administration was completed, the rearing and bar tests were performed respectively, and the number of standings and on-bar time of the mice were counted to evaluate the ameliorative effect of Compound 27 on the stiffness symptom of haloperidol-induced Parkinson's disease in CD-1 mice. The mice were subcutaneously injected with haloperidol at abdomen at a dose of 1 mg/kg, with the concentration of a working solution of 0.1 mg/ml and an injection volume of 10 ml/kg. At the 1st hour and the 4th hour after drug intervention, the mice were put into a white transparent plastic bucket with a diameter of 20 cm and a height of 21 cm. The mice were allowed to acclimate in the bucket for 5 min before starting video recording. The spontaneous activity behaviors of the mice within 10 minutes were recorded, whereby the number of standings was counted. The more the standings, the more frequent the spontaneous exploration activities of the mice, and the lower the degree of stiffness. At the time points of 1st and 4th hours after the rearing test was completed, bar test was carried out. The mice were placed on a long wooden bar with a diameter of […] and a height of 6 cm. The mice were let to hold the wooden bar with forelimbs, only with the buttocks or hind limbs on the ground. The timing was stopped when the hind limbs left the bench top or the fore limbs left the wooden bar, and the on-bar time of the mice was recorded. Each mouse was tested 3 times, and the maximum on-bar time and the average on-bar time were counted. […]

Setting [2] is: Experiment III, 3 mg/kg intragastric, 1 h.
[3] abbreviates: Experiment III, 3 mg/kg intragastric, 4 h.
The mark [4] stands for this setting: Experiment III, 10 mg/kg intragastric, 1 h.
Setting [5] is: Experiment III, 10 mg/kg intragastric, 4 h.
[6] abbreviates: Experiment III, 30 mg/kg intragastric, 1 h.
Where [7] appears, read: Experiment III, 30 mg/kg intragastric, 4 h.
Setting [8] is: Experiment II, 10 mg/kg intragastric, 1 h.
[9] abbreviates: Experiment II, 10 mg/kg intragastric, 4 h.
[10] abbreviates: Experiment II, 3 mg/kg intragastric, 1 h.
Setting [11] is: Experiment II, 3 mg/kg intragastric, 4 h.
Where [12] appears, read: Experiment II, 30 mg/kg intragastric, 1 h.
[13] abbreviates: Experiment II, 30 mg/kg intragastric, 4 h.

T1 sequence (P29274 whole entry): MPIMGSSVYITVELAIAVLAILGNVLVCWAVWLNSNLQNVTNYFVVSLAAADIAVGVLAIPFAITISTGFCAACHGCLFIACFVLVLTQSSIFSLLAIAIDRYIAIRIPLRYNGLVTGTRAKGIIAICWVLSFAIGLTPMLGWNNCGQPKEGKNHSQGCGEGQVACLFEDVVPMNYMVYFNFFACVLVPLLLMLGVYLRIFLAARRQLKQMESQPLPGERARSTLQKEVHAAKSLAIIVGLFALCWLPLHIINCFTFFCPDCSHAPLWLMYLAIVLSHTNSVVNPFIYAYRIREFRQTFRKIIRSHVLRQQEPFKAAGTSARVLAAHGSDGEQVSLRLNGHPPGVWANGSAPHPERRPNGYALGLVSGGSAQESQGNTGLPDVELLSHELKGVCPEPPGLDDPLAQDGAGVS

Turning to `COCCNc1ccc(CCNc2nc(N)n3nc(-c4ccco4)nc3n2)cc1` [Compound 27, 2-(furan-2-yl)-N5-(4-((2-methoxyethyl)amino)phenethyl)-[1,2,4]triazolo[1,5-a][1,3,5]triazine-5,7-diamine], at adenosine receptors A2A, the IC50 (as a rule, the concentration at which inhibition is half-maximal) amounted to 10.6 nM. The “Average on-bar time” value amounted to 56.83 ± 11.67 s in assay [1] (setting [2]); 75.11 ± 19.52 s in assay [1] (setting [3]); 34.83 ± 8.63 s in assay [1] (setting [4]); 39.13 ± 14.33 s in assay [1] (setting [5]); 22.04 ± 4.19 s in assay [1] (setting [6]); 23.00 ± 4.46 s in assay [1] (setting [7]). Moreover, the “Maximum on-bar time” value in assay [1] (setting [2]) is 88.00 ± 22.07 s; in assay [1] (setting [3]) it was 109.33 ± 28.68 s; in assay [1] (setting [4]) it was 61.38 ± 15.59 s; in assay [1] (setting [5]) it was 55.13 ± 18.32 s; in assay [1] (setting [6]), 35.00 ± 8.59 s; in assay [1] (setting [7]), 31.88 ± 5.75 s.
For `CCn1c(=O)c2c(nc(/C=C/c3ccc(OC)c(OC)c3)n2C)n(CC)c1=O` [Istradefylline, reference compound], the “Average on-bar time” value in assay [1] (setting [8]) was 23.04 ± 4.88 s; in assay [1] (setting [9]) it was 24.67 ± 5.21 s; in assay [1] (setting [4]), 23.71 ± 6.50 s; in assay [1] (setting [5]), 34.08 ± 6.69 s. Also, the “Maximum on-bar time” value in assay [1] (setting [8]) came out at 30.38 ± 5.84 s; in assay [1] (setting [9]) it was 35.75 ± 8.73 s; in assay [1] (setting [4]), 40.75 ± 13.17 s; in assay [1] (setting [5]), 54.75 ± 15.58 s.
In the case of `CC(=O)O.Nc1nc(NCCc2ccc(NC3COC3)cc2)nc2nc(-c3ccco3)nn12` [Acetate of Compound 22, 2-(furan-2-yl)-N5-(4-(oxetane-3-ylamino)phenethyl)-[1,2,4]triazolo[1,5-a][1,3,5]triazine-5,7-diamine acetate], the “Average on-bar time” value in assay [1] (setting [10]) is 109.38 ± 13.74 s; in assay [1] (setting [11]), 109.33 ± 26.37 s; in assay [1] (setting [8]), 41.88 ± 10.56 s; in assay [1] (setting [9]), 33.17 ± 6.69 s; in assay [1] (setting [12]), 26.17 ± 3.88 s; in assay [1] (setting [13]), 24.13 ± 4.28 s. Also, the “Maximum on-bar time” value came out at 157.50 ± 18.11 s in assay [1] (setting [10]); 172.25 ± 58.28 s in assay [1] (setting [11]); 77.13 ± 25.78 s in assay [1] (setting [8]); 50.50 ± 12.24 s in assay [1] (setting [9]); 42.25 ± 8.18 s in assay [1] (setting [12]); 32.88 ± 6.21 s in assay [1] (setting [13]).
Take `Nc1nc(NCCc2ccc(NC3COC3)cc2)nc2nc(-c3ccco3)nn12` [Compound 22, 2-(furan-2-yl)-N5-(4-(oxetan-3-ylamino)phenethyl)-[1,2,4]triazolo[1,5-a][1,3,5]triazine-5,7-diamine]: the IC50 at adenosine receptors A2A was found to be 7.07 nM.
Regarding `Cn1nnc(-c2ccc(CCNc3nc(N)n4nc(-c5ccco5)nc4n3)cc2)n1` [Compound 40, N5-(4-(2-methyl-2H-tetrazol-5-yl)phenethyl)-2-(furan-2-yl)-[1,2,4]triazolo[1,5-a][1,3,5]triazine-5,7-diamine], the IC50 on adenosine receptors A2A is 9.66 nM.
